Source: article PMC4791575 (ACS Infectious Diseases, 2016)
Like-named read-outs stand apart in the source and are kept apart here.

Experiments:
[1] = tested on: P. falciparum D6; assay: microbe, parasite or virus in culture; type: cell-based, Plasmodium falciparum; conditions: for EC50: Plasmodium falciparum, D6, read-out: P. falciparum D6 pEC50 (converted); for P. falciparum D6 pEC50: D6 strain
[2] = tested on: L. major promastigotes; assay: microbe, parasite or virus in culture; type: cell-based, Leishmania major; conditions: for EC50: Leishmania major, read-out: Leishmania Promast pEC50 (converted); for Leishmania Promast pEC50: L. major promastigotes
[3] = tested on: P. falciparum C235; assay: microbe, parasite or virus in culture; type: cell-based, Plasmodium falciparum; conditions: for EC50: Plasmodium falciparum, read-out: P. falciparum C235 pEC50 (converted)
[4] = tested on: HepG2 cells; assay: HepG2 host cell toxicity assay; type: cell-based; conditions: HepG2, purchased inhibitors, Table 3
[5] = tested on: L. major intracellular amastigotes; assay: microbe, parasite or virus in culture; type: cell-based, Leishmania major; conditions: for EC50: Leishmania major, read-out: Leishmania Amast pEC50 (converted); for Leishmania Amast pEC50: L. major intracellular amastigotes
[6] = tested on: T. brucei cells; assay: microbe, parasite or virus in culture; type: cell-based, Trypanosoma brucei; conditions: for EC50: Trypanosoma brucei, read-out: T. brucei pEC50 (within 46%) (converted); for T. brucei pEC50 (within 46%): purchased inhibitors, Table 3
[7] = tested on: 3T3; assay: 3T3 host cell toxicity; type: cell-based
[8] = tested on: T. cruzi intracellular amastigotes (Tulahuen strain); assay: microbe, parasite or virus in culture; type: cell-based, Trypanosoma cruzi; conditions: for EC50: Trypanosoma cruzi, TULAHUEN, read-out: T. cruzi pEC50 (μM) (within 21%) (converted); for T. cruzi pEC50 (within 21%): intracellular amastigotes, Tulahuen strain
[9] = tested on: P. falciparum W2; assay: microbe, parasite or virus in culture; type: cell-based, Plasmodium falciparum; conditions: for EC50: Plasmodium falciparum, W2, read-out: P. falciparum W2 pEC50 (converted)
[10] = HAT patients; cited from earlier work

| SMILES | EC50 [1] | EC50 [2] | EC50 [3] | host cell tox HepG2 pTC50 [4] | EC50 [5] | T. brucei proliferation activity (in words; active = pEC50 ≥ 6) [6] | EC50 [6] | host cell tox 3T3 pTC50 [7] | EC50 [8] | EC50 [9] | P. falciparum D6 pEC50 [1] | Leishmania Promast pEC50 [2] | P. falciparum C235 pEC50 [3] | Leishmania Amast pEC50 [5] | T. brucei pEC50 (within 46%) [6] | T. cruzi pEC50 (within 21%) [8] | P. falciparum W2 pEC50 [9] | mortality rate of melarsoprol treatment [10] | T. brucei proliferation activity (in words; active = pEC50 ≥ 6) ([6]; listed as NVP-TAE684) |
| --- | --- | --- | --- | --- | --- | --- | --- | --- | --- | --- | --- | --- | --- | --- | --- | --- | --- | --- | --- |
| C[C@@H](Oc1cc(-c2cnn(C3CCNCC3)c2)cnc1N)c1c(Cl)ccc(F)c1Cl [NEU-838, crizotinib] | 794 nM | 631 nM | 100 nM | 5.4 | 1.58 µM | potent T. brucei proliferation inhibitors | 398 nM | 4.8 | 7.94 µM | 39.8 nM | – | – | – | – | – | – | – | – | – |
| CC(C)CC(=O)Nc1[nH]nc2c1CN(C(=O)C1CCN(C)CC1)C2(C)C [NEU-1007, PHA-79388727] | 2000 nM | > 25100 nM | 2510 nM | <4.4 | > 15.8 µM | – | 2000 nM | <4 | > 50.1 µM | 2510 nM | – | – | – | – | – | – | – | – | – |
| Nc1nc(Nc2ccc(S(N)(=O)=O)cc2)nn1C(=O)c1c(F)cccc1F [NEU-971, JNJ-77066218] | 2000 nM | > 25100 nM | 1260 nM | 5.2 | > 15.8 µM | – | 316 nM | <4 | > 50.1 µM | 1000 nM | – | – | – | – | – | – | – | – | – |
| COc1ccc2c(c1)[nH]c1c(C)nccc12 [NEU-1049, harmine] | > 20000 nM | 1260 nM | > 20000 nM | <5.1 | 1.26 µM | – | > 3160 nM | <4 | 15.8 µM | > 20000 nM | – | – | – | – | – | – | – | – | – |
| CCc1cc2c(cc1N1CCC(N3CCOCC3)CC1)C(C)(C)c1[nH]c3cc(C#N)ccc3c1C2=O [NEU-974, CH542480210] | 3980 nM | 126 nM | > 20000 nM | <4.4 | > 15.8 µM | – | > 3160 nM | <4 | > 50.1 µM | > 20000 nM | – | – | – | – | – | – | – | – | – |
| Nc1nc(NCCNc2ncc(-c3ncc[nH]3)c(-c3ccc(Cl)cc3Cl)n2)ccc1[N+](=O)[O-] [NEU-978, CHIR-9801414] | – | – | – | 4.8 | – | – | – | <4 | – | – | <4.7 | 5.2 | <4.7 | <4.8 | <5.5 | < 4.3 | <4.7 | – | – |
| Nc1cccc(-c2cc3c(Oc4cccc(O)c4)ncnc3[nH]2)c1 [NEU-989, TWS11925] | – | – | – | <4.4 | – | – | – | 4.4 | – | – | 5.0 | 4.7 | 5.1 | <4.8 | 6.0 | < 4.3 | 4.7 | – | – |
| CN1CC[C@H](c2c(O)cc(O)c3c(=O)cc(-c4ccccc4Cl)oc23)[C@H](O)C1 [NEU-987, flavopiridol] | 2000 nM | 398 nM | 1580 nM | < 4.4 | 3.16 µM | – | 158 nM | < 4 | 12.6 µM | 2000 nM | – | – | – | – | – | – | – | – | – |
| O=C(NC1CCNCC1)c1n[nH]cc1NC(=O)c1c(Cl)cccc1Cl [NEU-982, AT751918] | 1260 nM | > 25100 nM | 316 nM | <4.4 | > 15.8 µM | – | 316 nM | <4 | 1.26 µM | 794 nM | – | – | – | – | – | – | – | – | – |
| C[C@]1(O)C[C@@H](c2nc(-c3ccc4ccc(-c5ccccc5)nc4c3)c3c(N)nccn32)C1 [NEU-976, linsitinib] | 501 nM | 7940 nM | 501 nM | 4.5 | > 15.8 µM | – | > 3160 nM | <4 | 10 µM | – | – | – | – | – | – | – | – | – | – |
| Cc1ncc(-c2ccnc(Nc3ccc(S(C)(=O)=O)cc3)n2)n1C(C)C [NEU-985, AZD543821] | 1260 nM | 398 nM | 1260 nM | 4.9 | 2.51 µM | – | 31.6 nM | <4 | 1.58 µM | 1000 nM | – | – | – | – | – | – | – | – | – |
| COc1cc(OC)c(/C=C/S(=O)(=O)Cc2ccc(OC)c(NCC(=O)O)c2)c(OC)c1 [NEU-973, ON-019109] | > 20000 nM | > 25100 nM | > 20000 nM | <4.4 | > 15.8 µM | – | > 3160 nM | <4 | > 50.1 µM | > 20000 nM | – | – | – | – | – | – | – | – | – |
| CNC(=O)c1nn(C)c2c1C(C)(C)Cc1cnc(Nc3ccc(N4CCN(C)CC4)cc3)nc1-2 [NEU-969, PHA-8481256] | 6310 nM | 316 nM | 6310 nM | 5.0 | 5.01 µM | – | 25.1 nM | <4 | 0.0398 µM | 7940 nM | – | – | – | – | – | – | – | – | – |
| CC[C@@H]1C(=O)N(C)c2cnc(Nc3ccc(C(=O)NC4CCN(C)CC4)cc3OC)nc2N1C1CCCC1 [NEU-980, BI 253616] | 20 nM | 3980 nM | 12.6 nM | 5.6 | 7.94 µM | – | 631 nM | 4.5 | 20 µM | 10 nM | – | – | – | – | – | – | – | – | – |
| Cn1cc(C2=C(c3ccc(Cl)cc3Cl)C(=O)NC2=O)c2ccccc21 [NEU-990, SB 21676322] | > 20000 nM | 2510 nM | > 20000 nM | <4.4 | > 15.8 µM | – | > 3160 nM | <4 | > 50.1 µM | > 20000 nM | – | – | – | – | – | – | – | – | – |
| CC[C@H](CO)Nc1nc(NCc2ccccc2)c2ncn(C(C)C)c2n1 [NEU-977, roscovitine] | – | – | – | 4.5 | – | – | – | <4 | – | – | – | – | – | – | – | – | – | – | – |
| Nc1nc(N)nc(Nc2ccc([As]3SCC(CO)S3)cc2)n1 (centres unmarked) [melarsoprol] | – | – | – | – | – | – | – | – | – | – | – | – | – | – | – | – | – | ≥ 5% | – |
| CCc1cnn2c(NCc3ccc[n+]([O-])c3)cc(N3CCCC[C@H]3CCO)nc12 [NEU-975, dinaciclib] | – | – | – | <4.4 | – | – | – | <4 | – | – | – | – | – | – | – | – | – | – | – |
| CCCCOc1c(C(=O)c2c(F)cc(C)cc2F)c[nH]c2nncc1-2 [NEU-968, BMS-2652465] | 15800 nM | 251 nM | 12600 nM | <4.4 | > 15.8 µM | – | 501 nM | <4 | > 50.1 µM | 10000 nM | – | – | – | – | – | – | – | – | – |
| Nc1ncnc2c1c(-c1cccc(OCc3ccccc3)c1)cn2[C@H]1C[C@@H](CN2CCC2)C1 [NEU-967, NVP-AEW5414] | 1260 nM | 100 nM | 1260 nM | 5.5 | 3.98 µM | – | 2000 nM | 4.8 | 3.98 µM | 1000 nM | – | – | – | – | – | – | – | – | – |
| CCc1cc(Nc2nccc(-c3c(-c4ccc(OC)c(C(=O)Nc5c(F)cccc5F)c4)nc4ccccn34)n2)c(OC)cc1N1CCC(N2CCN(S(C)(=O)=O)CC2)CC1 [NEU-970, GSK1904529A7] | – | – | – | <4.4 | – | – | – | <4 | – | – | 6.8 | <4.9 | 6.9 | 5.5 | 5.9 | < 4.3 | 7.0 | – | – |
| COc1cc(N2CCC(N3CCN(C)CC3)CC2)ccc1Nc1ncc(Cl)c(Nc2ccccc2S(=O)(=O)C(C)C)n1 [NEU-844, TAE684] | 501 nM | 316 nM | 501 nM | 5.3 | 1.26 µM | – | 100 nM | 4.6 | 5.01 µM | 398 nM | – | – | – | – | – | – | – | – | potent T. brucei proliferation inhibitors |
| CC(C)(C)c1cnc(CSc2cnc(NC(=O)C3CCNCC3)s2)o1 [NEU-984, SNS-03219, 20] | 5010 nM | > 25100 nM | 2000 nM | <4.4 | > 15.8 µM | – | 126 nM | <4 | > 50.1 µM | 3160 nM | – | – | – | – | – | – | – | – | – |
| O=c1sn(-c2cccc3ccccc23)c(=O)n1Cc1ccccc1 [NEU-991, tideglusib] | 25100 nM | 316 nM | 20000 nM | <4.4 | > 15.8 µM | – | > 3160 nM | 4.1 | 20 µM | 25100 nM | – | – | – | – | – | – | – | – | – |
| O=C1NC(=O)C(c2ccccc2[N+](=O)[O-])=C1Nc1ccc(O)c(Cl)c1 [NEU-986, SB 41528622] | – | – | – | <4.4 | – | – | – | 4.2 | – | – | – | – | – | – | – | – | – | – | – |
| CC[C@@H]1C(=O)N(C)c2cnc(Nc3ccc(C(=O)N[C@H]4CC[C@H](N5CCN(CC6CC6)CC5)CC4)cc3OC)nc2N1C(C)C [NEU-979, volasertib] | 158 nM | 1580 nM | 158 nM | 5.5 | 7.94 µM | – | > 3160 nM | 4.6 | 12.6 µM | 158 nM | – | – | – | – | – | – | – | – | – |
